Laboratory results from patent publication US20240247080A1, “GLP1/GIP/NPY2 RECEPTOR TRIPLE AGONISTS” (Boehringer Ingelheim International GmbH, priority 2022, published 2024).
Like-named read-outs stand apart in the source and are kept apart here. Starred links: 1 amine or outer side, 2 acyl side, 3 side chain; linkers in the order of their positions; H or OH if unused. Non-standard residues stand in square brackets, D forms with d. Groups on a side chain read outwards from the residue. No end group written: not given here. *: point of attachment. C20 diacid = O=C(O)CCCCCCCCCCCCCCCCCCC(=O)*; C18 diacid = O=C(O)CCCCCCCCCCCCCCCCC(=O)*; γGlu = O=C(O)[C@H](CCC(=O)[*:2])N[*:1]; εLys = N[C@@H](CCCCN[*:1])C(=O)[*:2]; AEEA = NCCOCCOCC(=O)O; Aib = CC(C)(N)C(=O)O

Assays:
hGLP1R = target: T1, hGLP1R (Homo sapiens, UniProt P43220); assay: hGLP1R CreLuc reporter gene assay in 0.5% and 100% plasma; assay type: cell-based; conditions: CreLuc reporter gene assay, 0.5% human plasma; read-out: hGLP1R 0.5% hP
T1 construct: expressed in transfected cells; host or cells: HEK-293 cells carrying a CRE-luciferase reporter gene
Summary of the method: (§1)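 HEK cells (GLP-1R, NPY2R) or CHO cells (GIPR) carrying a CRE-luciferase reporter, incubated 4 h at 37 °C with peptides in HBSS/20 mM HEPES pH 7.4 plus 0.5% human plasma, or in 100% plasma. Luminescence read; EC50 from 8-point variable-slope sigmoid fits.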

hGIPR = target: T2, hGIPR (Homo sapiens, UniProt P48546); assay: hGIPR CreLuc reporter gene assay in 0.5% and 100% plasma; assay type: cell-based; conditions: CreLuc reporter gene assay
T2 construct: expressed in transfected cells; host or cells: CHO cells carrying a CRE-luciferase reporter gene
T2 sequence (P48546 22-466): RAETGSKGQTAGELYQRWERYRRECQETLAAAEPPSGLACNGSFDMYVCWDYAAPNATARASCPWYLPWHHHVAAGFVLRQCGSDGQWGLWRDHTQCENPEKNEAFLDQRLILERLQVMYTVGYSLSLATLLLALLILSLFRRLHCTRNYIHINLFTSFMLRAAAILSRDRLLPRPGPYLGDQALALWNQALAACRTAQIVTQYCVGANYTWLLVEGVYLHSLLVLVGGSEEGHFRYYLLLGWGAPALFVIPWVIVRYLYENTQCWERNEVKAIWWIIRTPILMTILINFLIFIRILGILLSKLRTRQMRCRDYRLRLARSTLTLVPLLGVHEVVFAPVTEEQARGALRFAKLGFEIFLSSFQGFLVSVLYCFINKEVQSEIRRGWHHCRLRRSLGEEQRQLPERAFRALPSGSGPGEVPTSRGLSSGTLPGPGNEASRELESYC
Summary of the method: as §1

hNPY2R = target: T3, hNPY2R (Homo sapiens, UniProt P49146); assay: hNPY2R CreLuc reporter gene assay in 0.5% and 100% plasma; assay type: cell-based; conditions: CreLuc reporter gene assay
T3 construct: expressed in transfected cells; host or cells: HEK-293 cells carrying a CRE-luciferase reporter gene
T3 sequence (P49146 1-381): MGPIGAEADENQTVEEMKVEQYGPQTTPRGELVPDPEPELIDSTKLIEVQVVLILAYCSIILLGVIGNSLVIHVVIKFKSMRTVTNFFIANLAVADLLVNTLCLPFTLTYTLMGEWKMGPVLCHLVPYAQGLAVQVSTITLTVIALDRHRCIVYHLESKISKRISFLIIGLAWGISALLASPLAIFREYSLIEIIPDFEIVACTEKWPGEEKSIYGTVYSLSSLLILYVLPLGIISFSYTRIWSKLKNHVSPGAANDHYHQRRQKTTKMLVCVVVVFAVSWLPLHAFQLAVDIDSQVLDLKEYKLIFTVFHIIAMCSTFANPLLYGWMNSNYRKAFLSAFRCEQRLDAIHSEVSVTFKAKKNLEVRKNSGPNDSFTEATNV
Summary of the method: as §1

[1] = Mouse PK after intravenous application; assay type: in vivo; conditions: plasma, mean residence time, intravenous 30-60 nmol/kg, male NMRI mice
Description: Pharmacokinetic parameters of the peptides were determined after intravenous application to NMRI mice. Male NMRI mice were obtained from Janvier Laboratories (France) weighing 30 to 40 g. Mice were housed in standard cages with a 12:12 hour light:dark cycle and standard food and water access ad libitum. Each test peptide was dissolved in 50 mM phosphate buffer (pH 7.4)/3.5% mannitol. Intravenous application of 30-60 nmol/kg was performed via the tail vein. Serial blood samples from conscious mice were collected from the saphenous vein in EDTA-containing vials at different time points up to 56 hours post-dosing. Subsequently, plasma was prepared by centrifugation for 5 min at approximately 5000 rpm and stored at −20° C. until quantification of the peptide plasma levels by liquid chromatography mass spectrometry (LC-MS). Individual plasma concentration—time profiles were analysed by a non-compartmental approach and the resulting pharmacokinetic parameters were calculated.

[2] = 0.5% human plasma, read-out: hGIPR 0.5% hP
[3] = 100% human plasma, read-out: hGIPR 100% hP
[4] = 0.5% human plasma, read-out: hNPY2R 0.5% hP
[5] = 100% human plasma, read-out: hNPY2R 100% hP

T1 sequence (P43220 24-463): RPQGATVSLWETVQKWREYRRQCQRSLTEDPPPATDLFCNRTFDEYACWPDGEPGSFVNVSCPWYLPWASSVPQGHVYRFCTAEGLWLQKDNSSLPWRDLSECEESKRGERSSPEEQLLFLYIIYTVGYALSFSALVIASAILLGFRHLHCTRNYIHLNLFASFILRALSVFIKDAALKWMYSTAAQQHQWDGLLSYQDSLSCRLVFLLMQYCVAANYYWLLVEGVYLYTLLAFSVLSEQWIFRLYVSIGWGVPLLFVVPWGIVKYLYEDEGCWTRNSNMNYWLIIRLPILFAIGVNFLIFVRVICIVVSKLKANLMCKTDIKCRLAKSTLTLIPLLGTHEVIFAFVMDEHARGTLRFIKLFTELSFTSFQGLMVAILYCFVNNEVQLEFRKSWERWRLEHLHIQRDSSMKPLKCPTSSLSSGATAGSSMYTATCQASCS

Row | Compound | EC50 (hGLP1R) [nM] | EC50 (hGIPR; [2]) [nM] | EC50 (hGIPR; [3]) [nM] | EC50 (hNPY2R; [4]) [nM] | MRT [1] [h] | EC50 (hNPY2R; [5]) [nM]
1 | CC[C@H](C)[C@H](NC(=O)[C@H](CC(C)C)NC(=O)[C@H](Cc1c[nH]c2ccccc12)NC(=O)[C@H](CCC(=O)O)NC(=O)[C@@H](NC(=O)[C@H](Cc1ccccc1)NC(=O)[C@H](CCC(=O)O)NC(=O)C(C)(C)NC(=O)[C@H](CCC(N)=O)NC(=O)[C@H](C)NC(=O)[C@H](CCC(N)=O)NC(=O)[C@H](CCCCN)NC(=O)[C@H](CCC(=O)O)NC(=O)[C@H](CC(C)C)NC(=O)C(C)(C)NC(=O)[C@@H](NC(=O)[C@H](CO)NC(=O)[C@H](Cc1ccc(O)cc1)NC(=O)[C@H](CC(=O)O)NC(=O)[C@H](CO)NC(=O)[C@@H](NC(=O)[C@H](Cc1ccccc1)NC(=O)[C@@H](NC(=O)CNC(=O)[C@H](CCC(=O)O)NC(=O)C(C)(C)NC(=O)[C@@H](N)Cc1ccc(O)cc1)[C@@H](C)O)[C@@H](C)O)[C@@H](C)CC)C(C)C)C(=O)N[C@@H](CCCCNC(=O)[C@@H](N)CCCCNC(=O)CC[C@H](NC(=O)CC[C@H](NC(=O)CC[C@H](NC(=O)CC[C@H](NC(=O)CC[C@H](NC(=O)CC[C@H](NC(=O)CCCCCCCCCCCCCCCCC(=O)O)C(=O)O)C(=O)O)C(=O)O)C(=O)O)C(=O)O)C(=O)O)C(=O)NCC(=O)NCC(=O)N1CCC[C@H]1C(=O)N[C@@H](CO)C(=O)N[C@@H](CCC(=O)O)C(=O)NCC(=O)N[C@@H](C)C(=O)N[C@@H](CO)C(=O)N[C@@H](CC(C)C)C(=O)N[C@@H](CCCNC(=N)N)C(=O)N[C@@H](Cc1c[nH]cn1)C(=O)N[C@@H](Cc1ccc(O)cc1)C(=O)N[C@@H](Cc1ccc(O)cc1)C(=O)N[C@@H](CC(N)=O)C(=O)N[C@@H](Cc1c[nH]c2ccccc12)C(=O)N[C@@H](CC(C)C)C(=O)N[C@H](C(=O)N[C@@H](CCCNC(=N)N)C(=O)N[C@@H](CCC(N)=O)C(=O)N[C@@H](CCCNC(=N)N)C(=O)N[C@@H](Cc1ccc(O)cc1)C(N)=O)[C@@H](C)O [Compound 255, Y-Aib-E-G-T-F-T-S-D-Y-S-I-Aib-L-E-K-Q-A-Q-Aib-E-F-V-E-W-L-I-K(1,3)-GGPSEGASLRHYYNWLTRQRY-NH2.C18DA-gGlu-gGlu-gGlu-gGlu-gGlu-gGlu-eLys(1,2)] | 0.34 | 0.46 | 1.23 | 17.3 | 11 | –
2 | Y[Aib]EGTFTSDYSI[Aib]LEKQAQ[Aib]AFVEWLIK([AEEA-AEEA-γGlu-γGlu-γGlu-γGlu-C18 diacid])GGPSEGASLRHYYNWLTRQRY-NH2 [Compound 297, Y-Aib-E-G-T-F-T-S-D-Y-S-I-Aib-L-E-K-Q-A-Q-Aib-A-F-V-E-W-L-I-K(1,3)-GGPSEGASLRHYYNWLTRQRY-NH2.C18DA-gGlu-gGlu-gGlu-gGlu-OEG-OEG(1,2)] | 0.12 | 0.25 | 0.93 | – | 7.5 | 40.5
3 | Y[Aib]EGTFTSDYSI[Aib]LEKQAQ[Aib]AFVQWLIK([εLys-γGlu-γGlu-γGlu-γGlu-γGlu-γGlu-γGlu-C20 diacid])GGPSEGASLRHYYNWLTRQRY-NH2 [Compound 224, Y-Aib-E-G-T-F-T-S-D-Y-S-I-Aib-L-E-K-Q-A-Q-Aib-A-F-V-Q-W-L-I-K(1,3)-GGPSEGASLRHYYNWLTRQRY-NH2.C20DA-gGlu-gGlu-gGlu-gGlu-gGlu-gGlu-gGlu-eLys(1,2)] | 0.13 | 0.43 | – | 10.6 | 10.2 | 31.6
